# Test results: ChEMBL document CHEMBL5620359, “Discovery of 2,5-disubstituted furan derivatives featuring a benzamide motif for overcoming P-glycoprotein mediated multidrug resistance in MCF-7/ADR cell” (Eur J Med Chem, 2023)
# Activity calls are given as the source filed them. The calls are words filed in the database; no cut-off is given here.
# Experiments:
# [1] = test system: NCI/ADR-RES; test: Cytotoxicity against human MCF7ADR cells assessed as cell survival rate at 5 uM incubated for 48 hrs by CCK8 assay relative to control; format: functional
# [2] = test system: NCI/ADR-RES; test: Cytotoxicity against human MCF7ADR cells assessed as cell survival rate at 1 uM incubated for 48 hrs by CCK8 assay relative to control; format: functional
# [3] = test system: NCI/ADR-RES; test: Antitumor activity against human MCF7ADR cells xenografted in nude BALB/c mouse assessed as tumor size reduction at 10 mg/kg, ip for 14 days administered every 2 days; format: functional, organism-based; details: time 14.0 day
# [4] = Toxicity in nude BALB/c mouse xenografted with human MCF7ADR cells assessed as body weight loss at 10 mg/kg, ip for 14 days administered every 2 days in presence of doxorubicin; format: organism-based; details: in vivo, 336 h, time 14 day
# [5] = test system: NCI/ADR-RES; test: Reversal activity against doxorubicin-mediated resistance in human MCF7ADR cells assessed as reversal fold by measuring ratio of doxorubicin IC50 to doxorubicin IC50 in presence of test compound at 0.1 uM incubated for 48 hrs by CCK8 assay; format: functional
# [6] = Toxicity in nude BALB/c mouse xenografted with human MCF7ADR cells assessed as body weight loss at 10 mg/kg, ip for 14 days administered every 2 days; format: organism-based; details: in vivo, 336 h, time 14 day
# [7] = Toxicity in nude BALB/c mouse xenografted with human MCF7ADR cells assessed as morphological change in lung at 10 mg/kg, ip for 14 days administered every 2 days by H and E staining based analysis; format: organism-based; details: in vivo, 336 h, time 14 day
# [8] = test system: NCI/ADR-RES; test: Downregulation of P-gp expression in human MCF7ADR cells at 0.1 to 10 uM incubated for 48 hrs by Western blot analysis; format: functional, cell-based; details: dose 0.1-10 µM
# [9] = test system: MCF7; test: Cytotoxicity against human MCF7 cells assessed as cell survival rate at 5 uM incubated for 48 hrs by CCK8 assay relative to control; format: functional
# [10] = test system: NCI/ADR-RES; test: Reversal activity against paclitaxel-mediated resistance in human MCF7ADR cells assessed as reversal fold by measuring ratio of paclitaxel IC50 to paclitaxel IC50 in presence of test compound at 5 uM incubated for 48 hrs by CCK8 assay; format: functional
# [11] = test system: NCI/ADR-RES; test: Reversal activity against vincristine-mediated resistance in human MCF7ADR cells assessed as reversal fold by measuring ratio of vincristine IC50 to vincristine IC50 in presence of test compound at 5 uM incubated for 48 hrs by CCK8 assay; format: functional
# [12] = test system: NCI/ADR-RES; test: Antitumor activity against human MCF7ADR cells xenografted in nude BALB/c mouse assessed as tumor weight reduction at 10 mg/kg, ip for 14 days administered every 2 days; format: functional, organism-based; details: time 14.0 day
# [13] = test system: NCI/ADR-RES; test: Antitumor activity against human MCF7ADR cells xenografted in nude BALB/c mouse assessed as tumor volume reduction at 10 mg/kg, ip for 14 days administered every 2 days; format: functional, organism-based; details: time 14.0 day
# [14] = molecular target: T1, ATP-dependent translocase ABCB1 (Homo sapiens, UniProt P08183); test: Inhibition of P-gp in human MCF7ADR cells assessed as increase in Rh123 accumulation at 0.1 to 10 uM incubated for 4 hrs by flow cytometry; format: cell-based; details: dose 0.1-10 µM
# [15] = test system: NCI/ADR-RES; test: Reversal activity against doxorubicin-mediated resistance in human MCF7ADR cells xenografted in nude BALB/c mouse at 10 mg/kg, ip for 14 days administered every 2 days; format: functional, organism-based; details: time 14.0 day
# [16] = test system: NCI/ADR-RES; test: Reversal activity against doxorubicin-mediated resistance in human MCF7ADR cells assessed as reversal fold by measuring ratio of doxorubicin IC50 to doxorubicin IC50 in presence of test compound at 0.5 uM incubated for 48 hrs by CCK8 assay; format: functional
# [17] = test system: NCI/ADR-RES; test: Reversal activity against doxorubicin-mediated resistance in 3D spheroid model of human MCF7ADR cells assessed as reduction in tumor spheroid volume at 5 uM incubated for 9 days by inverted microscopy; format: functional, cell-based; details: time 9.0 day
# [18] = Toxicity in nude BALB/c mouse xenografted with human MCF7ADR cells assessed as morphological change in kidney at 10 mg/kg, ip for 14 days administered every 2 days by H and E staining based analysis; format: organism-based; details: in vivo, 336 h, time 14 day
# [19] = Toxicity in nude BALB/c mouse xenografted with human MCF7ADR cells assessed as morphological change in heart at 10 mg/kg, ip for 14 days administered every 2 days by H and E staining based analysis; format: organism-based; details: in vivo, 336 h, time 14 day
# [20] = molecular target: T1, ATP-dependent translocase ABCB1; test: Inhibition of P-gp in human MCF7ADR cells assessed as increase in Rh123 accumulation at 0.1 to 10 uM incubated for 4 hrs by fluorescence microscopy; format: cell-based; details: dose 0.1-10 µM
# [21] = test system: NCI/ADR-RES; test: Reversal activity against daunorubicin-mediated resistance in human MCF7ADR cells assessed as reversal fold by measuring ratio of daunorubicin IC50 to daunorubicin IC50 in presence of test compound at 5 uM incubated for 48 hrs by CCK8 assay; format: functional
# [22] = test system: NCI/ADR-RES; test: Reversal activity against doxorubicin-mediated resistance in human MCF7ADR cells assessed as reversal fold by measuring ratio of doxorubicin IC50 to doxorubicin IC50 in presence of test compound at 5 uM incubated for 48 hrs by CCK8 assay; format: functional
# [23] = Toxicity in nude BALB/c mouse xenografted with human MCF7ADR cells assessed as morphological change in spleen at 10 mg/kg, ip for 14 days administered every 2 days by H and E staining based analysis; format: organism-based; details: in vivo, 336 h, time 14 day
# [24] = Toxicity in nude BALB/c mouse xenografted with human MCF7ADR cells assessed as morphological change in liver at 10 mg/kg, ip for 14 days administered every 2 days by H and E staining based analysis; format: organism-based; details: in vivo, 336 h, time 14 day
# [25] = test system: NCI/ADR-RES; test: Reversal activity against doxorubicin-mediated resistance in human MCF7ADR cells assessed as reversal fold by measuring ratio of doxorubicin IC50 to doxorubicin IC50 in presence of test compound at 1 uM incubated for 48 hrs by CCK8 assay; format: functional
# [26] = test system: MCF7; test: Antitumor activity against human MCF7 cells incubated for 48 hrs by CCK8 assay; format: functional, cell-based; details: MCF7, 48 h
# [27] = Toxicity in nude BALB/c mouse xenografted with human MCF7ADR cells assessed as increase in nuclear density in liver at 3 mg/kg, ip for 14 days administered every 2 days by H and E staining based analysis; format: organism-based; details: in vivo, 336 h, time 14 day
# [28] = Toxicity in nude BALB/c mouse xenografted with human MCF7ADR cells assessed as reduction in liver volume at 3 mg/kg, ip for 14 days administered every 2 days by H and E staining based analysis; format: organism-based; details: in vivo, 336 h, time 14 day
# [29] = Toxicity in nude BALB/c mouse xenografted with human MCF7ADR cells assessed as body weight loss at 3 mg/kg, ip for 14 days administered every 2 days; format: organism-based; details: in vivo, 336 h, time 14 day
# [30] = Toxicity in nude BALB/c mouse xenografted with human MCF7ADR cells assessed as hyperplasia in spleen at 3 mg/kg, ip for 14 days administered every 2 days by H and E staining based analysis; format: organism-based; details: in vivo, 336 h, time 14 day
# [31] = Toxicity in nude BALB/c mouse xenografted with human MCF7ADR cells assessed as pathological change in spleen at 3 mg/kg, ip for 14 days administered every 2 days by H and E staining based analysis; format: organism-based; details: in vivo, 336 h, time 14 day
# [32] = Toxicity in nude BALB/c mouse xenografted with human MCF7ADR cells assessed as reduction in spleen volume at 3 mg/kg, ip for 14 days administered every 2 days by H and E staining based analysis; format: organism-based; details: in vivo, 336 h, time 14 day
# [33] = Toxicity in nude BALB/c mouse xenografted with human MCF7ADR cells assessed as increase in nuclear density in kidney at 3 mg/kg, ip for 14 days administered every 2 days by H and E staining based analysis; format: organism-based; details: in vivo, 336 h, time 14 day
# T1 sequence (P08183 whole entry): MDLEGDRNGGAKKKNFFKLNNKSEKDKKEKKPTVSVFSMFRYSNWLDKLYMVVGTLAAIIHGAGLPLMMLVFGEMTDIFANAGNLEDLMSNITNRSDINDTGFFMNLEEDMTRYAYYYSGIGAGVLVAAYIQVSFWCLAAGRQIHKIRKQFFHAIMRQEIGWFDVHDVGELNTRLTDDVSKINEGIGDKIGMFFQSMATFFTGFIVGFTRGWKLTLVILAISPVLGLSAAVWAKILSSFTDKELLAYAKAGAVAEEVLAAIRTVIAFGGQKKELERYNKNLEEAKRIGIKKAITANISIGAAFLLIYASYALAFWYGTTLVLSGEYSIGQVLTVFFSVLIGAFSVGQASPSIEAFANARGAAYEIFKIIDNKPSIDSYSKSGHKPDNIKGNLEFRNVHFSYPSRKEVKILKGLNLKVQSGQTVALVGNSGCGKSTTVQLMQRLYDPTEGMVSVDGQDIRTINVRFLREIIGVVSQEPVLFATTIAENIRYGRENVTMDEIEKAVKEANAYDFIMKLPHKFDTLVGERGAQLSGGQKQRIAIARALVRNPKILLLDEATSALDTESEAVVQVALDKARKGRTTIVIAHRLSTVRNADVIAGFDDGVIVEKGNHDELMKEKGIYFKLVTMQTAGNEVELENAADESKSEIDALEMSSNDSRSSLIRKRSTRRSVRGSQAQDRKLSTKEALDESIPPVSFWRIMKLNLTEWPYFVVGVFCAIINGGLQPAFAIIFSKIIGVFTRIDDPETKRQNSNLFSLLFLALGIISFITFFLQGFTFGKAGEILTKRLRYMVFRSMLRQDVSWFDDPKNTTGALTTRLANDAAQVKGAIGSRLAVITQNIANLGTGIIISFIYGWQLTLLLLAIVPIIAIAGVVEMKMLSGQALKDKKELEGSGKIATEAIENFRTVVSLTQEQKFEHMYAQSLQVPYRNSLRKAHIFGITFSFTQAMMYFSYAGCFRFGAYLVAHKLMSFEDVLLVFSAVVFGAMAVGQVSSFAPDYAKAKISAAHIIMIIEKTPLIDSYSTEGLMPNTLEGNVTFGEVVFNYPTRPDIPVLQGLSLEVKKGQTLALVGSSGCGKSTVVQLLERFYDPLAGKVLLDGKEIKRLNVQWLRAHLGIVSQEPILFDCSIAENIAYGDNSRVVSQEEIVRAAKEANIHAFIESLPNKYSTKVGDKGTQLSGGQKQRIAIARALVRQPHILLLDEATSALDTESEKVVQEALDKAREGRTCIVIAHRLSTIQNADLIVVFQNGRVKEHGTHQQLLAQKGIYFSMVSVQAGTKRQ
smiles,measurement,setting,value
COc1cc2c(cc1OC)CN(C(=O)c1ccc(-c3ccc(NC(=O)c4cccs4)cc3)o1)CC2,Activity,[1],26%
same,Activity,[2],92.3%
COc1cc2c(cc1OC)CN(C(=O)c1ccc(-c3ccc(NC(=O)c4ccco4)cc3)o1)CC2,Activity,[1],11.3%
same,Activity,[2],80.6%
COc1ccc(C(=O)Nc2ccc(-c3ccc(C(=O)N4CCc5cc(OC)c(OC)cc5C4)o3)cc2)cc1,Activity,[3],inactive
same,Activity,[4],Toxic
same,fold change (FC),[5],3.3
same,Activity,[6],Non-Toxic
same,Activity,[7],Non-Toxic
same,Activity,[8],inactive
same,Activity,[9],80.4%
same,fold change (FC),[10],158.6
same,fold change (FC),[11],18.9
same,Activity,[12],inactive
same,Activity,[1],80.1%
same,Activity,[13],inactive
same,inhibition (INH),[14],Dose-Dependent Effect
same,Activity,[15],Active
same,fold change (FC),[16],8.8
same,Activity,[17],Active
same,Activity,[18],Non-Toxic
same,Activity,[19],Non-Toxic
same,inhibition (INH),[20],Dose-Dependent Effect
same,fold change (FC),[21],143.4
same,fold change (FC),[22],565
same,Activity,[23],Non-Toxic
same,Activity,[24],Non-Toxic
same,fold change (FC),[25],110.5
COc1cc2c(cc1OC)CN(C(=O)c1ccc(-c3ccc(NC(=O)c4cccnc4)cc3)o1)CC2,Activity,[1],14.7%
same,Activity,[2],72.4%
same,fold change (FC),[25],2.2
CC[C@]1(O)C[C@H]2CN(CCc3c([nH]c4ccccc34)[C@@](C(=O)OC)(c3cc4c(cc3OC)N(C=O)[C@H]3[C@@](O)(C(=O)OC)[C@H](OC(C)=O)[C@]5(CC)C=CCN6CC[C@]43[C@@H]65)C2)C1 [VINCRISTINE],IC50,[26],900 nM
CC(=O)O[C@H]1C(=O)[C@@]2(C)[C@H]([C@H](OC(=O)c3ccccc3)[C@]3(O)C[C@H](OC(=O)[C@H](O)[C@@H](NC(=O)c4ccccc4)c4ccccc4)C(C)=C1C3(C)C)[C@]1(OC(C)=O)CO[C@@H]1C[C@@H]2O [PACLITAXEL],IC50,[26],550 nM
COc1cccc2c1C(=O)c1c(O)c3c(c(O)c1C2=O)C[C@@](O)(C(=O)CO)C[C@@H]3O[C@H]1C[C@H](N)[C@H](O)[C@H](C)O1 [DOXORUBICIN],Activity,[27],Toxic
same,Activity,[28],Toxic
same,Activity,[29],Toxic
same,Activity,[30],Toxic
same,Activity,[31],Toxic
same,Activity,[32],Toxic
same,Activity,[33],Toxic
COc1cccc2c1C(=O)c1c(O)c3c(c(O)c1C2=O)C[C@@](O)(C(C)=O)C[C@@H]3O[C@H]1C[C@H](N)[C@H](O)[C@H](C)O1 [DAUNORUBICIN],IC50,[26],980 nM
